Patent US8343961B2, “Substituted heterocyclic compounds” (ArQule, Inc., priority 2009, dated 2013)

Columns and labels:
Tec kinase = biological target: T1, Tec kinase (Homo sapiens, UniProt P42680); test: Tec Kinase Activity Assay; assay type: biochemical; conditions: read-out: Tec % INH, at 30 uM
T1 sequence (P42680 1-631): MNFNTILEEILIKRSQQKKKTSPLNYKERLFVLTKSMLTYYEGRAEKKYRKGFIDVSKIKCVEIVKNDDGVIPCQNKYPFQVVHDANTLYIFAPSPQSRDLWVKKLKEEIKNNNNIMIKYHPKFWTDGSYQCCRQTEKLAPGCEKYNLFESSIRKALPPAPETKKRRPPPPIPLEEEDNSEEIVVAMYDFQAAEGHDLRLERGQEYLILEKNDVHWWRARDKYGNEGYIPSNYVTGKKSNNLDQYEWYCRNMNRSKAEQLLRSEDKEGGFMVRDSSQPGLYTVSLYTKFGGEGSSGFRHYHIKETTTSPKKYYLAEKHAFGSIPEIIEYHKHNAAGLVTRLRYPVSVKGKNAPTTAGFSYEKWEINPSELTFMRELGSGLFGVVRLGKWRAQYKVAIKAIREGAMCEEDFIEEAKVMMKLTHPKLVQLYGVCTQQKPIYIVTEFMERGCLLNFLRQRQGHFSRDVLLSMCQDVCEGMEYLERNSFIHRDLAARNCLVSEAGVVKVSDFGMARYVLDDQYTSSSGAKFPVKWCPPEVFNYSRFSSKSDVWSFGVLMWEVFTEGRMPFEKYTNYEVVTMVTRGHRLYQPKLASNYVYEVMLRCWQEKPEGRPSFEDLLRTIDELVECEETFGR
Procedure: (§1) The disclosed compounds were assayed for their ability to inhibit the activity of Tec kinase. Nunc Maxisorb plates were coated with streptavidin by overnight incubation with 100 μL per well of 1 μg/mL Streptavidin in DPBS. Prior to the start of the experiment, the plates were washed with TBST (3×200 μL) and blocked for at least 1 hour by adding 150 μL of 5% BSA/TBST. The plates were washed with TBST (3×200 μL/well) and left dry immediately before the capture step.
The test articles and controls (Staurosporine and Sutent) were prepared using the following assay buffer @ 3× desired final concentration (50 mM Tris-HCl, 0.02 mg/mL BSA, 10 mM MgCl2, 0.1 mM Na3VO4, 1 mM EGTA, 75 μM ATP0.01% NP-40, 2 mM DTT in 10% glycerol/water). In a reaction plate were added rapidly 20 μL test article (or control) and 20 μL TEC 0.25 ng/4. The plate was incubated for 30 minutes. To the reaction plate was added 20 μL of Pyk-2.5 ng/μL. The plate was incubated at room temperature for two hours. From the reaction plate, 50 μL was transferred to the streptavidin coated plate. The capture plate was incubated at room temperature for 30 minutes then washed 6× with TBST. To the capture plate was added 100 μL/well of Cell Signaling anti-phospho tyrosine at a dilution of 1:3000 in 2% BSA/TBST. The plate was incubated for one hour at room temperature then washed 6× with TBST. To the capture plate was added 100 μL/well of Alkaline Phosphatase Tagged Goat anti Mouse Antibody at a dilution of 1:4000 in 2% BSA/TBST. The plate was incubated for one hour at room temperature then washed 6× with TBST. The fluorescent readout was initiated by the addition of 100 μL/well of Attophos reagent (6 mg/10 mL). The reading was done on the Perkin Elmer Envision system.

RET kinase = RET kinase (Homo sapiens, UniProt P07949); test: RET Kinase Activity Assay; assay type: biochemical; conditions: read-out: Ret, % INH, at 30 uM
Chain of RET kinase (P07949 29-1114): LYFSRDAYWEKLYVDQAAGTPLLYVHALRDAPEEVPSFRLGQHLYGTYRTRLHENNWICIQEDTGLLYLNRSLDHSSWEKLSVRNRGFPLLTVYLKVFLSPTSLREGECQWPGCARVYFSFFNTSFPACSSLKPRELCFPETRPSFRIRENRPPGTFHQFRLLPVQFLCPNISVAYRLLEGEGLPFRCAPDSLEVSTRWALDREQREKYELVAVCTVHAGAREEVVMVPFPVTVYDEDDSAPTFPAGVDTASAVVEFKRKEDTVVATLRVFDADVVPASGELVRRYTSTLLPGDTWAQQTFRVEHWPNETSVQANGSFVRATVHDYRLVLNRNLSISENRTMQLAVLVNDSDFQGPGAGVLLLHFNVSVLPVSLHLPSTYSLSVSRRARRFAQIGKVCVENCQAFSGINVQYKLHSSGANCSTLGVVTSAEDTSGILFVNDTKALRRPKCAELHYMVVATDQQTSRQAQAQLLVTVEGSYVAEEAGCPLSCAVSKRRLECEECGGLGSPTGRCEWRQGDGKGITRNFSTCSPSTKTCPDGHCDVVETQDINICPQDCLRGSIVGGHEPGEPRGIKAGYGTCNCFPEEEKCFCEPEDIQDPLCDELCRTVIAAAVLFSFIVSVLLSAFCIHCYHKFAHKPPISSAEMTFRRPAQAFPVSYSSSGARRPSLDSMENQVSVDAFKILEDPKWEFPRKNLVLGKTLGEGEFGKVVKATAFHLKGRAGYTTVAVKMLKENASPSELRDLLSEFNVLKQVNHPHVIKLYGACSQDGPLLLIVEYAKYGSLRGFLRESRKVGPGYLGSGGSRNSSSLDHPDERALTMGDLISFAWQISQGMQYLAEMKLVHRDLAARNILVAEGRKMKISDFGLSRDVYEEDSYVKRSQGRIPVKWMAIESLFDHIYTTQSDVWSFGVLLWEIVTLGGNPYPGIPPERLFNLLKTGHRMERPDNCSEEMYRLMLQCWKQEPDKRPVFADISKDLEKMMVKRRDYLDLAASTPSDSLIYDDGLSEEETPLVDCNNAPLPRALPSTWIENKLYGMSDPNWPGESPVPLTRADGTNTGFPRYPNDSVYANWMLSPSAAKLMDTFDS
Procedure: as §1, with “RET” for “Tec”, “Maxwasorb” for “Maxisorb”, “[…])” for “μL/well)”
The test articles and controls (Staurosporine and Sutent) were prepared using the following assay buffer @ 3× desired final concentration (50 mM […], 0.02 mg/mL BSA, 10 mM MgCl2, 0.1 mM Na3VO4, 1 mM EGTA, 75 μM ATP0.01% NP-40, 2 mM DTT in 10% glycerol/water). In a reaction plate, were added rapidly 20 μL test article (or control) and 20 μL RET (0.25 ng/4 final concentration). The plate was incubated for 15 minutes. To the reaction plate was added 20 μL of Pyk-2 (0.25 ng/4 final concentration). The plate was incubated at room temperature for one hour.
From the reaction plate, 50 μL was transferred to the streptavidin coated plate. The capture plate was incubated at room temperature for 30 minutes then washed 6× with TBST. To the capture plate was added 100 μL/well of Cell Signaling anti-phospho tyrosine at a dilution of 1:3000 in 2% BSA/TBST. The plate was incubated for one hour at room temperature then washed 6× with TBST. To the capture plate was added 100 μL/well of Alkaline Phosphatase Tagged Goat anti Mouse Antibody at a dilution of 1:4000 in 2% BSA/TBST. The plate was incubated for one hour at room temperature then washed 6× with TBST. The fluorescent readout was initiated by the addition of 100 μL/well of Attophos reagent (6 mg/10 mL). The reading was done on the Perkin Elmer Envision system.

| inhibition at 30 µM (Tec kinase) [%] | inhibition at 30 µM (RET kinase) [%] | SMILES |
| --- | --- | --- |
| > 79 | 50 to 79 | COc1cccc(CN2CCN(c3nc(N)nc4[nH]ncc34)Cc3ccccc32)c1 [Compound 1, 4-[1-(3-methoxybenzyl)-1,2,3,5-tetrahydro-4H-1,4-benzodiazepin-4-yl]-1H-pyrazolo[3,4-d]pyrimidin-6-amine] |
| 50 to 79 | 50 to 79 | COc1cccc(CN2CCN(c3nc(N)nc4[nH]cnc34)Cc3ccccc32)c1 [Compound 2, 6-[1-(3-methoxybenzyl)-1,2,3,5-tetrahydro-4H-1,4-benzodiazepin-4-yl]-9H-purin-2-amine] |
| < 50 | < 50 | CC(C)c1ccc(CN2CCN(c3nc(N)nc4[nH]cnc34)Cc3ccccc32)cc1 [Compound 3, 6-[1-(4-isopropylbenzyl)-1,2,3,5-tetrahydro-4H-1,4-benzodiazepin-4-yl]-9H-purin-2-amine] |
| 50 to 79 | < 50 | CC(C)c1ccc(CN2CCN(c3nc(N)nc4[nH]ncc34)Cc3ccccc32)cc1 [Compound 4, 4-[1-(4-isopropylbenzyl)-1,2,3,5-tetrahydro-4H-1,4-benzodiazepin-4-yl]-1H-pyrazolo[3,4-d]pyrimidin-6-amine] |
| 50 to 79 | 50 to 79 | Nc1nc(N2CCN(Cc3cccc(F)c3)c3ccccc3C2)c2cn[nH]c2n1 [Compound 6, 4-[1-(3-fluorobenzyl)-1,2,3,5-tetrahydro-4H-1,4-benzodiazepin-4-yl]-1H-pyrazolo[3,4-d]pyrimidin-6-amine] |
| 50 to 79 | < 50 | Nc1nc(N2CCN(CCCc3cccc(Cl)c3)c3ccccc3C2)c2nc[nH]c2n1 [Compound 7, 6-{1-[3-(3-chlorophenyl)propyl]-1,2,3,5-tetrahydro-4H-1,4-benzodiazepin-4-yl}-9H-purin-2-amine] |
| > 79 | < 50 | Nc1nc(N2CCN(CCCc3cccc(Cl)c3)c3ccccc3C2)c2cn[nH]c2n1 [Compound 8, 4-{1-[3-(3-chlorophenyl)propyl]-1,2,3,5-tetrahydro-4H-1,4-benzodiazepin-4-yl}-1H-pyrazolo[3,4-d]pyrimidin-6-amine] |
| 50 to 79 | 50 to 79 | COc1ccccc1CN1CCN(c2nc(N)nc3[nH]cnc23)Cc2ccccc21 [Compound 9, 6-[1-(2-methoxybenzyl)-1,2,3,5-tetrahydro-4H-1,4-benzodiazepin-4-yl]-9H-purin-2-amine] |
| > 79 | < 50 | COc1ccccc1CN1CCN(c2nc(N)nc3[nH]ncc23)Cc2ccccc21 [Compound 10, 4-[1-(2-methoxybenzyl)-1,2,3,5-tetrahydro-4H-1,4-benzodiazepin-4-yl]-1H-pyrazolo[3,4-d]pyrimidin-6-amine] |
| 50 to 79 | 50 to 79 | Cc1ccccc1CN1CCN(c2nc(N)nc3[nH]cnc23)Cc2ccccc21 [Compound 11, 6-[1-(2-methylbenzyl)-1,2,3,5-tetrahydro-4H-1,4-benzodiazepin-4-yl]-9H-purin-2-amine] |
| 50 to 79 | < 50 | Cc1ccccc1CN1CCN(c2nc(N)nc3[nH]ncc23)Cc2ccccc21 [Compound 12, 4-[1-(2-methylbenzyl)-1,2,3,5-tetrahydro-4H-1,4-benzodiazepin-4-yl]-1H-pyrazolo[3,4-d]pyrimidin-6-amine] |
| < 50 | < 50 | Nc1nc(N2CCN(Cc3ccccc3Cl)c3ccccc3C2)c2nc[nH]c2n1 [Compound 13, 6-[1-(2-chlorobenzyl)-1,2,3,5-tetrahydro-4H-1,4-benzodiazepin-4-yl]-9H-purin-2-amine] |
| 50 to 79 | < 50 | Nc1nc(N2CCN(Cc3ccccc3Cl)c3ccccc3C2)c2cn[nH]c2n1 [Compound 14, 4-[1-(2-chlorobenzyl)-1,2,3,5-tetrahydro-4H-1,4-benzodiazepin-4-yl]-1H-pyrazolo[3,4-d]pyrimidin-6-amine] |
| 50 to 79 | 50 to 79 | Nc1nc(N2CCN(Cc3ccc(F)cc3)c3ccccc3C2)c2nc[nH]c2n1 [Compound 15, 6-[1-(4-fluorobenzyl)-1,2,3,5-tetrahydro-4H-1,4-benzodiazepin-4-yl]-9H-purin-2-amine] |
| 50 to 79 | < 50 | Nc1nc(N2CCN(Cc3ccc(F)cc3)c3ccccc3C2)c2cn[nH]c2n1 [Compound 16, 4-[1-(4-fluorobenzyl)-1,2,3,5-tetrahydro-4H-1,4-benzodiazepin-4-yl]-1H-pyrazolo[3,4-d]pyrimidin-6-amine] |
| 50 to 79 | 50 to 79 | Nc1nc(N2CCN(Cc3cccc4ccccc34)c3ccccc3C2)c2nc[nH]c2n1 [Compound 17, 6-[1-(1-naphthylmethyl)-1,2,3,5-tetrahydro-4H-1,4-benzodiazepin-4-yl]-9H-purin-2-amine] |
| 50 to 79 | < 50 | Nc1nc(N2CCN(Cc3cccc(C(F)(F)F)c3)c3ccccc3C2)c2nc[nH]c2n1 [Compound 20, 6-{1-[3-(trifluoromethyl)benzyl]-1,2,3,5-tetrahydro-4H-1,4-benzodiazepin-4-yl}-9H-purin-2-amine] |
| 50 to 79 | < 50 | Nc1nc(N2CCN(Cc3cccc(C(F)(F)F)c3)c3ccccc3C2)c2cn[nH]c2n1 [Compound 21, 4-{1-[3-(trifluoromethyl)benzyl]-1,2,3,5-tetrahydro-4H-1,4-benzodiazepin-4-yl}-1H-pyrazolo[3,4-d]pyrimidin-6-amine] |
| < 50 | < 50 | Nc1nc(N2CCN(Cc3ccc(Cl)cc3)c3ccccc3C2)c2cn[nH]c2n1 [Compound 23, 4-[1-(4-chlorobenzyl)-1,2,3,5-tetrahydro-4H-1,4-benzodiazepin-4-yl]-1H-pyrazolo[3,4-d]pyrimidin-6-amine] |
| 50 to 79 | 50 to 79 | Nc1nc(N2CCN(Cc3cccc(Cl)c3)c3ccccc3C2)c2nc[nH]c2n1 [Compound 24, 6-[1-(3-chlorobenzyl)-1,2,3,5-tetrahydro-4H-1,4-benzodiazepin-4-yl]-9H-purin-2-amine] |
| 50 to 79 | < 50 | Nc1nc(N2CCN(Cc3cccc(Cl)c3)c3ccccc3C2)c2cn[nH]c2n1 [Compound 25, 4-[1-(3-chlorobenzyl)-1,2,3,5-tetrahydro-4H-1,4-benzodiazepin-4-yl]-1H-pyrazolo[3,4-d]pyrimidin-6-amine] |
| < 50 | 50 to 79 | Cc1ccc(CN2CCN(c3nc(N)nc4[nH]cnc34)Cc3ccccc32)cc1 [Compound 26, 6-[1-(4-methylbenzyl)-1,2,3,5-tetrahydro-4H-1,4-benzodiazepin-4-yl]-9H-purin-2-amine] |
